Reference: US11021445B2, “Carboxylic acid derivative as AT2R receptor antagonist” (SHANDONG DANHONG PHARMACEUTICAL CO., LTD., priority 2017, dated 2021)
Converted amounts (≈) assume the structure as drawn.

Assays:
[1] = Plasma protein binding rate (PPB) test, equilibrium dialysis; type: in vitro ADME, Sprague-Dawley rats; settings: Sprague-Dawley, rat, 37°C, read-out: Plasma Protein Binding (%) SD Rat Plasma (converted)
Procedure: In vitro protein binding rates of 0.2 μM, 2 μM, 10 μM of test compounds with Sprague-Dawley rats, beagle dogs, human plasma were determined by equilibrium dialysis.
The experiment will use a 96-well equilibrium dialysis plate (HTDialysis device) to determine the plasma protein binding rate of the to-be-tested compound and the control compounds.
Prior to the start of the experiment, the dialysis membrane was pretreated according to the instructions for use and the dialysis unit was assembled as required.
Blank plasma was taken from CD-1 mice, Sprague-Dawley rats, Beagle dogs, cynomolgus monkeys and humans (an anticoagulant is EDTA-K2, which is a commercial product purchased, or is collected and prepared by the Drug Evaluation Department of Wuxi AppTech, and is stored in a refrigerator below −60° C. before use). A certain volume of the to-be-tested compound or the control compound working solution was added to prepare plasma samples of the compound to be tested at a concentration of 0.2, 2, 10 μM and plasma samples of the control compound at a concentration of 2 μM (n=1). The organic phase content was ≤1%. First, a certain volume of a plasma sample containing the to-be-tested compound and the control compound was taken out into the sample receiving plate as a sample at zero time (T0 sample, n=3); secondly, a plasma sample containing the to-be-tested compound and the control compound was added to one side of the dialysis membrane (plasma end, n=3), and a certain volume of dialysis buffer (buffer end, n=3) was added to the other side of the dialysis membrane; then the dialysis plate was placed in a humidified incubator with 5% CO2 for incubation for 4 hours at 37±1° C.
After the incubation, a certain volume of the dialyzed buffer sample (F sample) and the dialyzed plasma sample (T sample) were transferred to the sample receiving plate, and all samples were subjected to protein precipitation for LC/MS/MS analysis. And the dissociation rate of the compound (% Unbound) was calculated by the following formula: % Unbound=100*[F]/[T], % Bound=100−% Unbound. Wherein, % Unbound is the dissociation rate of the compound; % Bound is the binding rate of the compound; [F] is the concentration of the compound at the buffer end of the dialysis plate; [T] is the concentration of the compound at the plasma end of the dialysis plate; and the experimental results are shown in Table 7.

[2] = Determination of kinetic solubility; type: physicochemical; settings: buffer solution pH 7.4, aqueous buffer, kinetic from dmso stock, pH 7.4, 24 hours at room temperature, theoretical maximum 200 μM
Procedure: The to-be-tested compound was dissolved in DMSO to prepare a 10 mmol/L stock solution. 980 μL of dissolution medium was pipetted into a 2 mL screw-capped glass vial by using a pipette (Eppendorf Research Company). 20 μL of the stock solution of each test compound and the QC sample were added to a buffer solution corresponding to a kinetic detection solution of pH 7.4. The final concentrations of the test compound and DMSO solution were 200 μM and 2%, respectively. The cover of the medicine bottle was screwed. The theoretical maximum concentration is 200 μM. The mixture was shaken at 880 rpm for 24 hours at room temperature. The vial was centrifuged for 30 minutes at 13,000 rpm. 200 μL of the supernatant was added to a 96-well plate by using a digital pipette. The solubility of the test compound was determined by high performance liquid chromatography, and the experimental results are shown in Table 2.

CYP3A4 = target: T1, CYP3A4 (Homo sapiens, UniProt P08684); experiment: Human liver microsome CYP inhibition experiment; type: in vitro ADME; settings: pooled human liver microsomes; read-out: Cytochrome P450 isoenzyme IC50 3A4
T1 construct: Mixed human liver microsomes (pooled HLM, n≥50) were purchased from Corning Inc; tissue Corning Inc. or other qualified suppliers; host or cells: pooled human liver microsomes (n≥50)
Procedure: (§1) The research project used a specific probe substrate for each isoenzyme to evaluate the inhibitory effect of the test compound on human liver microsomal cytochrome P450 isoenzymes (CYPIA2. CYP2C9, CYP2C19, CYP2D6, and CYP3A4). Mixed human liver microsomes (pooled HLM, n≥50) were purchased from Corning Inc. (Steuben, N.Y., USA) or other qualified suppliers, and were stored in a refrigerator below −60° C. before use. The diluted series of to-be-tested compound working solutions were added to an incubation system containing cofactors of human liver microsomes, a probe substrate and a circulation system, and the methanol content was about 1% (v/v) of the final incubation system. A control containing no the to-be-tested compound and containing a solvent was used as a control for enzyme activity (100%). The concentration of the analyte in the sample was determined by liquid chromatography-tandem mass spectrometry (LC/MS/MS). The calculation was performed by using the average of the concentrations of the samples (a blank solvent, a positive control inhibitor, or the to-be-tested compound). Non-linear regression analysis was performed by using SigmaPlot (V.11) on the average percent activity of the compound to be tested to the concentration. The IC50 value was calculated by a three-parameter or four-parameter inflection logarithmic equation.

CYP2C9 = target: T2, CYP2C9 (Homo sapiens, UniProt P11712); experiment: Human liver microsome CYP inhibition experiment; type: in vitro ADME; settings: pooled human liver microsomes; read-out: Cytochrome P450 isoenzyme IC50 2C9
T2 construct: Mixed human liver microsomes (pooled HLM, n≥50) were purchased from Corning Inc; tissue Corning Inc. or other qualified suppliers; host or cells: pooled human liver microsomes (n≥50)
Procedure: as §1

CYP1A2 = target: T3, CYP1A2 (Homo sapiens, UniProt P05177); experiment: Human liver microsome CYP inhibition experiment; type: in vitro ADME; settings: pooled human liver microsomes; read-out: Cytochrome P450 isoenzyme IC50 CYP1A2
T3 construct: Mixed human liver microsomes (pooled HLM, n≥50) were purchased from Corning Inc; tissue Corning Inc. or other qualified suppliers; host or cells: pooled human liver microsomes (n≥50)
T3 sequence (P05177 1-516): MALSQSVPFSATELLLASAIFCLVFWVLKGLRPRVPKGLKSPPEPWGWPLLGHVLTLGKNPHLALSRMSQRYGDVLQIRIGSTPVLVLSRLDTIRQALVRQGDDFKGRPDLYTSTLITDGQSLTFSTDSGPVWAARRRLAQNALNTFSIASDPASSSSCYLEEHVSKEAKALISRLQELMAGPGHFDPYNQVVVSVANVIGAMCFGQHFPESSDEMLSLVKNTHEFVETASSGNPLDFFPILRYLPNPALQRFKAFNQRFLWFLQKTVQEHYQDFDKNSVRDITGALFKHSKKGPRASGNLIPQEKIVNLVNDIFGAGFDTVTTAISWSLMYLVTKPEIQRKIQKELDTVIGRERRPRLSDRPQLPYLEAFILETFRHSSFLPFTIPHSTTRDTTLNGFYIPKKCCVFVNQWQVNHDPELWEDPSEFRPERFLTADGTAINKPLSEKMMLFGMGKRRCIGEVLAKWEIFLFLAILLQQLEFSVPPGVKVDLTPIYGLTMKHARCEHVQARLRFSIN
Procedure: as §1

CYP2D6 = target: T4, CYP2D6 (Homo sapiens, UniProt P10635); experiment: Human liver microsome CYP inhibition experiment; type: in vitro ADME; settings: pooled human liver microsomes; read-out: Cytochrome P450 isoenzyme IC50 2D6
T4 construct: Mixed human liver microsomes (pooled HLM, n≥50) were purchased from Corning Inc; tissue Corning Inc. or other qualified suppliers; host or cells: pooled human liver microsomes (n≥50)
Procedure: as §1

CYP2C19 = target: T5, CYP2C19 (Homo sapiens, UniProt P33261); experiment: Human liver microsome CYP inhibition experiment; type: in vitro ADME; settings: pooled human liver microsomes; read-out: Cytochrome P450 isoenzyme IC50 2C19
T5 construct: Mixed human liver microsomes (pooled HLM, n≥50) were purchased from Corning Inc; tissue Corning Inc. or other qualified suppliers; host or cells: pooled human liver microsomes (n≥50)
Procedure: as §1

T1 sequence (P08684 whole entry): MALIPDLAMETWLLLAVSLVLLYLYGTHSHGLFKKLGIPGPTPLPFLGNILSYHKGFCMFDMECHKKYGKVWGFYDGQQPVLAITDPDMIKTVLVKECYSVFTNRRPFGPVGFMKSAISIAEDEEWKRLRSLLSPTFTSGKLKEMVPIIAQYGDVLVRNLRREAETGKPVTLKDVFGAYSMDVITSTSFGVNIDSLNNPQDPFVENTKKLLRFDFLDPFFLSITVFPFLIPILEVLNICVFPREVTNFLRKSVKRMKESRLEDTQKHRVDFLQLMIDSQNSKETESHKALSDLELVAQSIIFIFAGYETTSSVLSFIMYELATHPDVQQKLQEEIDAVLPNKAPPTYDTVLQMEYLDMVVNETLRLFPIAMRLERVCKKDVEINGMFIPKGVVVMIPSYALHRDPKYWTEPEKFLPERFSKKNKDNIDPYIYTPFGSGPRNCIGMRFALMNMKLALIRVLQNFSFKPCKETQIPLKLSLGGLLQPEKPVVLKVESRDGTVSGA
T5 sequence (P33261 whole entry): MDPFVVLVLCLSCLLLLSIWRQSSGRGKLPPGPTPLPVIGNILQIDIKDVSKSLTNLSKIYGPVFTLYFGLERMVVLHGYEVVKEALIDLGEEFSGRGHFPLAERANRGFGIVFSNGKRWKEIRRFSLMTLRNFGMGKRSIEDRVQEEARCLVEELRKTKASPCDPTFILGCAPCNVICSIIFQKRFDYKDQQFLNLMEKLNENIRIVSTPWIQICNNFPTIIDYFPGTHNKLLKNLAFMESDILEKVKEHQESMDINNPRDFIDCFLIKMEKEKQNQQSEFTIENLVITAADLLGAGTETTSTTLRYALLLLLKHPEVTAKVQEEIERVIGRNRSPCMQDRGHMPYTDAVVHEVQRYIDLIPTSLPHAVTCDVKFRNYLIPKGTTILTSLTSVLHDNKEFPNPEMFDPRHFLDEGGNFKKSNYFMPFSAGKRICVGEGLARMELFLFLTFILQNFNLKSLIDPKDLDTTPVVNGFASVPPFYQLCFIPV
T4 sequence (P10635 whole entry): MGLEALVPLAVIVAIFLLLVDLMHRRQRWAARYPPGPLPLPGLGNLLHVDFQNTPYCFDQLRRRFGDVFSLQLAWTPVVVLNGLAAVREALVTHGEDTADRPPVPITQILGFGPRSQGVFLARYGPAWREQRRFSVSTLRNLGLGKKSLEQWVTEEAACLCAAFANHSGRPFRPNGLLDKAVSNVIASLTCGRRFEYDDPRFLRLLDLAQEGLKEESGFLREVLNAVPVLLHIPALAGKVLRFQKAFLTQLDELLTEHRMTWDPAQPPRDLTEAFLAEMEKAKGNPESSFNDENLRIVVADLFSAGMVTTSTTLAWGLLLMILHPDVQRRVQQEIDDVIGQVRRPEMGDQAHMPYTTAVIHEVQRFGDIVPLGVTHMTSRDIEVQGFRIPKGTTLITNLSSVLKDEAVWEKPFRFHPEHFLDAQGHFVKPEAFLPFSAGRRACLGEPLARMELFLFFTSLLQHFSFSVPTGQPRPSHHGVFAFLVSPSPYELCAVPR
T2 sequence (P11712 whole entry): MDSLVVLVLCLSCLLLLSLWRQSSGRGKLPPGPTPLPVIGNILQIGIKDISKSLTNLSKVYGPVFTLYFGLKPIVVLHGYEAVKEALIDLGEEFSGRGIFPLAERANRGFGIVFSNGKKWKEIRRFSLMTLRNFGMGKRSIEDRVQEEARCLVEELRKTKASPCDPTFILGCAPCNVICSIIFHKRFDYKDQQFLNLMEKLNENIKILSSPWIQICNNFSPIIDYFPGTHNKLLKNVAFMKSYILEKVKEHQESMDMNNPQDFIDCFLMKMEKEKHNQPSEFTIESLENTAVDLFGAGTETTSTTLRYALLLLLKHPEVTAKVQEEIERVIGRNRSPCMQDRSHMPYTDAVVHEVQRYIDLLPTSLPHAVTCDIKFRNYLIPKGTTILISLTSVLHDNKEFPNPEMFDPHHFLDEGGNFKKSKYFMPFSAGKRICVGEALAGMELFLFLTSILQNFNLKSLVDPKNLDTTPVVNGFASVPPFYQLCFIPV

**Q.** With `COc1ccc2c(c1OCc1ccccc1)C[C@@H](C(=O)O)N(C(=O)[C@@H](OC1(C)CCCC1)c1ccccc1)C2` [Compound 57] as the compound, how does the fraction unbound at 4 h [1] read?
**A.** 0.002

**Q.** With `COc1ccc2c(c1OCc1ccccc1)C[C@@H](C(=O)O)N(C(=O)[C@@H](OC1CC(F)(F)C1)c1ccccc1)C2` [Compound 51] as the compound, how does the fraction unbound at 4 h [1] read?
**A.** 0.055

**Q.** And the solubility at 24 h [2]?
**A.** 190 µM (≈ 102 µg/mL)

**Q.** What about the IC50 (CYP3A4) of the same compound?
**A.** > 50 µM

**Q.** What about the IC50 (CYP2C9) of the same compound?
**A.** 34.4 µM

**Q.** And the IC50 (CYP1A2)?
**A.** > 50 µM

**Q.** What about the IC50 (CYP2D6) of the same compound?
**A.** > 50 µM

**Q.** What about the IC50 (CYP2C19) of the same compound?
**A.** > 50 µM

**Q.** What does the source list for `COc1ccc2c(c1OCc1ccccc1)C[C@@H](C(=O)O)N(C(=O)C(c1ccccc1)c1ccccc1)C2` [EMA-401, reference compound]?
**A.** fraction unbound at 4 h [1]: 0.001; solubility at 24 h [2]: 192 µM (≈ 97.3 µg/mL); IC50 (CYP3A4): 9.19 µM; IC50 (CYP2C9): 7.28 µM; IC50 (CYP1A2): 13 µM; IC50 (CYP2D6): > 50 µM; IC50 (CYP2C19): 17.6 µM

**Q.** Which fraction unbound at 4 h [1] does the source give for `COc1ccc2c(c1OCc1ccccc1)C[C@@H](C(=O)O)N(C(=O)[C@@H](OC1CCCC1)c1ccccc1)C2` [Compound 37] here?
**A.** 0.001

**Q.** And the solubility at 24 h [2]?
**A.** > 200 µM

**Q.** What about the IC50 (CYP3A4) of the same compound?
**A.** > 50 µM

**Q.** What about the IC50 (CYP2C9) of the same compound?
**A.** 30.5 µM

**Q.** What about the IC50 (CYP1A2) of the same compound?
**A.** > 50 µM

**Q.** And the IC50 (CYP2D6)?
**A.** > 50 µM

**Q.** What about the IC50 (CYP2C19) of the same compound?
**A.** > 50 µM

**Q.** Which results are given for `O=C(O)[C@@H]1Cc2c(ccc(Cl)c2OCc2ccccc2)CN1C(=O)[C@@H](OC1CCCC1)c1ccccc1` [Compound 107]?
**A.** solubility at 24 h [2]: 181 µM (≈ 94.2 µg/mL); IC50 (CYP3A4): > 50 µM; IC50 (CYP2C9): 14.5 µM; IC50 (CYP1A2): > 50 µM; IC50 (CYP2D6): > 50 µM; IC50 (CYP2C19): > 50 µM

**Q.** What does the source list for `COc1ccc2c(c1OCc1ccccc1)C[C@@H](C(=O)O)N(C(=O)[C@@H](O[C@H]1CC[C@@H](O)CC1)c1ccccc1)C2` [Compound 63]?
**A.** fraction unbound at 4 h [1]: 0.011; solubility at 24 h [2]: 190 µM (≈ 104 µg/mL); IC50 (CYP3A4): > 50 µM; IC50 (CYP2C9): > 50 µM; IC50 (CYP1A2): > 50 µM; IC50 (CYP2D6): > 50 µM; IC50 (CYP2C19): > 50 µM
